Measurements from ChEMBL document CHEMBL1152563, “Identification of new agonists of urotensin-II from a cyclic peptide library” (Bioorg Med Chem, 2009).
Peptide text beside a SMILES is read from it.

Key:
[1] = biological target: T1, Urotensin-2 receptor (Homo sapiens, UniProt Q9UKP6); test: Agonist activity at human GPR14 expressed in HEK293 cells by calcium mobilization assay; format: functional, cell-based
T1 sequence (Q9UKP6 whole entry): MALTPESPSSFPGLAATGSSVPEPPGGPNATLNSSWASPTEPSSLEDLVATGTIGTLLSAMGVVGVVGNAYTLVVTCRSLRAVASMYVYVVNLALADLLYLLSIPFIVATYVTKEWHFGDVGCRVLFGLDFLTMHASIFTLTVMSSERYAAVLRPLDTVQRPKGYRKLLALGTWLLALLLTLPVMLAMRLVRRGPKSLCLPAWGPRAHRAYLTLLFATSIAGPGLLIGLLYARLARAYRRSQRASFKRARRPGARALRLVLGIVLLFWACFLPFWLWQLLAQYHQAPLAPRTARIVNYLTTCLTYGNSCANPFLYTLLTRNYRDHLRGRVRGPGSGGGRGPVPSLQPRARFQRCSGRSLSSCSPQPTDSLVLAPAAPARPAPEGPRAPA

[2] = biological target: T2, Urotensin-2 receptor (Homo sapiens) (UniProt Q9UKP6); test: Agonist activity at human GPR14 expressed in HEK293 cells by calcium mobilization assay relative to urotensin 2; format: functional, cell-based
T2 sequence (whole entry): T1 sequence (Q9UKP6 whole entry)

| SMILES | EC50 [1] [nM] | Emax [2] [%] |
| --- | --- | --- |
| NCCCC[C@@H]1NC(=O)[C@H](Cc2c[nH]c3ccccc23)NC(=O)[C@H](Cc2ccccc2)NC(=O)CNC(=O)[C@@H]2CCCN2C(=O)[C@H](Cc2ccccc2)NC1=O (cyclo(FPGFWK)) | 13.2 | 101 |
| NCCCC[C@@H]1NC(=O)[C@H](Cc2c[nH]c3ccccc23)NC(=O)[C@H](Cc2ccc(O)cc2)NC(=O)CNC(=O)[C@@H]2CCCN2C(=O)[C@H](Cc2ccccc2)NC1=O (cyclo(FPGYWK)) | 75.7 | 102 |
| NCCCC[C@@H]1NC(=O)[C@H](Cc2c[nH]c3ccccc23)NC(=O)[C@H](Cc2ccccc2)NC(=O)CNC(=O)[C@@H]2CCCN2C(=O)[C@H](Cc2c[nH]c3ccccc23)NC1=O (cyclo(FWKWPG)) | 20.6 | 92 |
| NCCCC[C@@H]1NC(=O)[C@H](Cc2c[nH]c3ccccc23)NC(=O)[C@H](CO)NC(=O)CNC(=O)[C@@H]2CCCN2C(=O)[C@H](Cc2c[nH]c3ccccc23)NC1=O (cyclo(GSWKWP)) | 16.7 | 100 |

These reach a lower EC50 [1]. Values come first.

| EC50 [1] [nM] | Emax [2] [%] | SMILES |
| --- | --- | --- |
| 12.6 | 86 | NCCCC[C@@H]1NC(=O)[C@H](Cc2c[nH]c3ccccc23)NC(=O)[C@H](Cc2ccc(O)cc2)NC(=O)CNC(=O)[C@@H]2CCCN2C(=O)[C@H](Cc2ccc(O)cc2)NC1=O (cyclo(GYWKYP)) |
| 10.1 | 96 | NCCCC[C@@H]1NC(=O)[C@H](Cc2c[nH]c3ccccc23)NC(=O)[C@H](CO)NC(=O)CNC(=O)[C@@H]2CCCN2C(=O)[C@H](Cc2ccccc2)NC1=O (cyclo(FPGSWK)) |
| 8.51 | 108 | NCCCC[C@@H]1NC(=O)[C@H](Cc2c[nH]c3ccccc23)NC(=O)[C@H](CO)NC(=O)CNC(=O)[C@@H]2CCCN2C(=O)[C@H](Cc2ccc(O)cc2)NC1=O (cyclo(GSWKYP)) |
| 6.94 | 98 | NCCCC[C@@H]1NC(=O)[C@H](Cc2c[nH]c3ccccc23)NC(=O)[C@H](Cc2ccccc2)NC(=O)CNC(=O)[C@@H]2CCCN2C(=O)[C@H](Cc2ccc(O)cc2)NC1=O (cyclo(FWKYPG)) |
